In patent US9012655B2, “Antimicrobial/adjuvant compounds and methods” (Denouamed, Inc., priority 2011, dated 2015):
Converted amounts (≈) assume the structure as drawn.

Assays:
AcpS enzyme = AcpS enzyme (Escherichia coli, UniProt P24224); assay: Measurement of AcpS inhibition ([3H]acetyl-CoA incorporation into apo-ACP); type: biochemical; conditions: % activity vs blank-subtracted counts
Procedure, shortened: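 Acetyl transfer from [3H]acetyl-CoA (labelled stock mixed with unlabelled acetyl-CoA) onto apo-ACP by E. coli AcpS at RT, started with substrate; aliquots TCA-precipitated at time points up to 60 min. Pellet radioactivity by scintillation; results as % activity of blank-subtracted substrate counts.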

[1] = system: Methicillin-Resistant Staph. aureus (MRSA); assay: MIC, NCCLS M7-A6 broth microdilution, MRSA; type: cell-based; conditions: 16 to 20 h, 35 degrees Celsius; for MIC: Staphylococcus aureus, MRSA
Procedure, shortened: (§1)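 Broth microdilution per NCCLS M7-A6 in cation-adjusted Mueller-Hinton broth, doubling dilutions, inoculum 5×10^5 CFU/mL, DMSO controls included. Read after 16–20 h at 35 °C in ambient air; MIC is lowest concentration preventing visible growth.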

E. coli D22 = assay: MIC, NCCLS M7-A6 broth microdilution, E. coli D22; type: cell-based; conditions: 35 degrees Celsius; for MIC: Escherichia coli, D22, 16 to 20 h
Procedure, shortened: as §1

Bacillus cereus NCTC6349 = assay: MIC panel of challenge pathogens (CLSI); type: cell-based; conditions: Bacillus cereus NCTC6349; for MIC: read-out: 100% inhibition; for MIC50: read-out: MIC50 (50%); for MIC80: read-out: MIC80 (80%)
Protocol: (§2) The inocula for each bacterial strain were prepared by picking 5-10 distinct colonies from the culture plates and suspending them in the appropriate broth as per Clinical and Laboratory Standards Institute (CLSI) guidelines M07-A8, M24-A or M11-A7 as appropriate. The inoculum was resuspended by vigorous shaking on a vortex mixer for 15 s. The turbidity was then adjusted to McFarland standard 0.5 ([…]). The inoculum was further diluted in the appropriate media for MIC tests to give a final inoculum in each well of 2-8×10^5 CFU/ml. MICs were tested in the appropriate broth in accordance with the appropriate CLSI guidelines.
(§3) A stock solution of each compound was prepared at a concentration of 1.28 g/L in DMSO. The stock was further diluted in the appropriate media to give a top starting concentration of 128 mg/L in the assay. 100 μL of the appropriate media, as per CLSI guidelines, was dispensed into each well in columns 2-12. 200 μL of the each compound solution (at 256 mg/L) was dispensed into each well in column 1. 100 μL aliquots were pipetted from column 1 wells and dispensed into column 2 with a multichannel pipette (±2% coefficient of variation) thus diluting two-fold. 100 μL samples were then pipetted from column 2 wells and dispensed into column 3. The process was repeated through to column 10. The final 100 μL of diluted drug from column 10 was then discarded. Row 11 acted as a positive control (no compound, but organisms added), Row 12 acted as a negative control (no compound, and no organisms added).
(§4) 100 μL of the appropriate inoculum suspension in the appropriate media, as per CLSI guidelines, was added to the appropriate wells. […] All plates were incubated in the dark under aerobic or anaerobic conditions at 30-37° C. for 24-48 hours, according to the appropriate CLSI guideline. Plates were read visually 24-48 hours post inoculation. Endpoints of 100% inhibition were determined (CLSI interpretation endpoints following visual examination).
(§5) MIC50, MIC80, and 100% inhibition results are reported below in μg/mL in the following Tables, indicating each compound tested against a given species and strain: […]

[2] = system: Enterococcus faecalis ATCC29212; assay: MIC panel of challenge pathogens (CLSI); type: cell-based; conditions: Enterococcus faecalis ATCC29212; for MIC: read-out: 100% inhibition; for MIC50: read-out: MIC50 (50%); for MIC80: read-out: MIC80 (80%)
Protocol: as §2, §3, §4, §5

[3] = system: Enterococcus faecalis ATCC51299; assay: MIC panel of challenge pathogens (CLSI); type: cell-based; conditions: Enterococcus faecalis ATCC51299; for MIC: read-out: 100% inhibition; for MIC50: read-out: MIC50 (50%); for MIC80: read-out: MIC80 (80%)
Protocol: as §2, §3, §4, §5

[4] = system: Enterococcus faecium ATCC700221; assay: MIC panel of challenge pathogens (CLSI); type: cell-based; conditions: Enterococcus faecium ATCC700221; for MIC: read-out: 100% inhibition; for MIC50: read-out: MIC50 (50%); for MIC80: read-out: MIC80 (80%)
Protocol: as §2, §3, §4, §5

[5] = system: Staphylococcus aureus ATCC43300; assay: MIC panel of challenge pathogens (CLSI); type: cell-based; conditions: Staphylococcus aureus ATCC43300; for MIC: read-out: 100% inhibition; for MIC50: read-out: MIC50 (50%); for MIC80: read-out: MIC80 (80%)
Protocol: as §2, §3, §4, §5

[6] = system: Staphylococcus aureus AUR131 007035; assay: MIC panel of challenge pathogens (CLSI); type: cell-based; conditions: Staphylococcus aureus AUR131 007035; for MIC / MIC50 / MIC80: AUR131007035; for MIC: read-out: 100% inhibition; for MIC50: read-out: MIC50 (50%); for MIC80: read-out: MIC80 (80%)
Protocol: as §2, §3, §4, §5

[7] = system: Staphylococcus aureus EUP MRSA002; assay: MIC panel of challenge pathogens (CLSI); type: cell-based; conditions: Staphylococcus aureus EUP MRSA002; for MIC / MIC50 / MIC80: EUPMRSA002; for MIC: read-out: 100% inhibition; for MIC50: read-out: MIC50 (50%); for MIC80: read-out: MIC80 (80%)
Protocol: as §2, §3, §4, §5

[8] = system: Staphylococcus aureus NRS382; assay: MIC panel of challenge pathogens (CLSI); type: cell-based; conditions: Staphylococcus aureus NRS382; for MIC: read-out: 100% inhibition; for MIC50: read-out: MIC50 (50%); for MIC80: read-out: MIC80 (80%)
Protocol: as §2, §3, §4, §5

Chain of AcpS enzyme (P24224 whole entry): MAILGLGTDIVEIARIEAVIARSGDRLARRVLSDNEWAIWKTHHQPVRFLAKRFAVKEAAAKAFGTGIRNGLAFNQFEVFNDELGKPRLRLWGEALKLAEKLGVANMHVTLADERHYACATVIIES

## Cc1ccc(-c2cc(-c3nn[nH]n3)cc(-c3ccccc3-c3ccccc3)c2)c2ccccc12 [DNM0474]
AcpS enzyme; test compound 50 uM
  % AcpS activity at 50 uM: 15.08%
AcpS enzyme; test compound 500 uM
  % AcpS activity @ 500 uM: 0.3%
[1]
  MIC MRSA: 2 µM (≈ 0.877 µg/mL)
E. coli D22; 16 to 20 h
  MIC E coli D22: >125 µM
Bacillus cereus NCTC6349
  100% inhibition: ≦0.25 μg/mL
  MIC50 (50%): ≦0.25 μg/mL
  MIC80 (80%): ≦0.25 μg/mL
[2]
  100% inhibition: 1 µg/mL
  MIC50 (50%): 1 µg/mL (≈ 2.28 µM)
  MIC80 (80%): 1 µg/mL (≈ 2.28 µM)
[3]
  100% inhibition: 1 µg/mL
  MIC50 (50%): 1 µg/mL (≈ 2.28 µM)
  MIC80 (80%): 1 µg/mL (≈ 2.28 µM)
[4]
  100% inhibition: 1 µg/mL
  MIC50 (50%): 1 µg/mL (≈ 2.28 µM)
  MIC80 (80%): 1 µg/mL (≈ 2.28 µM)
[5]
  100% inhibition: 0.5 µg/mL
  MIC50 (50%): 0.5 µg/mL (≈ 1.14 µM)
  MIC80 (80%): 0.5 µg/mL (≈ 1.14 µM)
[6]
  100% inhibition: 0.5 µg/mL
  MIC50 (50%): 0.5 µg/mL (≈ 1.14 µM)
  MIC80 (80%): 0.5 µg/mL (≈ 1.14 µM)
[7]
  100% inhibition: 1 µg/mL
  MIC50 (50%): 1 µg/mL (≈ 2.28 µM)
  MIC80 (80%): 1 µg/mL (≈ 2.28 µM)
[8]
  100% inhibition: 0.5 µg/mL
  MIC50 (50%): 0.5 µg/mL (≈ 1.14 µM)
  MIC80 (80%): 0.5 µg/mL (≈ 1.14 µM)

## CC(C)c1cc(Cl)ccc1-c1cc(-c2nnn[nH]2)sc1-c1ccc(Cl)cc1C(C)C [DNM0548, 5-(4,5-Bis(4-chloro-2-iso-propylphenyl)thiophen-2-yl)-1H-tetrazole]
AcpS enzyme; test compound 50 uM
  activity at 50 µM: 3.1%
AcpS enzyme; test compound 500 uM
  remaining activity at 500 µM: 0.1%
[1]
  MIC: 4 µM (≈ 1.83 µg/mL)
E. coli D22
  MIC: 60 µM (≈ 27.4 µg/mL)
Bacillus cereus NCTC6349
  MIC: ≤ 0.25 µg/mL
  MIC50: ≤ 0.25 µg/mL
  MIC80: ≤ 0.25 µg/mL
[2]
  MIC: 0.25 µg/mL (≈ 0.547 µM)
  MIC50: 0.25 µg/mL (≈ 0.547 µM)
  MIC80: 0.25 µg/mL (≈ 0.547 µM)
[3]
  MIC: ≤ 0.25 µg/mL
  MIC50: ≤ 0.25 µg/mL
  MIC80: ≤ 0.25 µg/mL
[4]
  MIC: ≤ 0.25 µg/mL
  MIC50: ≤ 0.25 µg/mL
  MIC80: ≤ 0.25 µg/mL
[5]
  MIC: ≤ 0.25 µg/mL
  MIC50: ≤ 0.25 µg/mL
  MIC80: ≤ 0.25 µg/mL
[6]
  MIC: 0.5 µg/mL (≈ 1.09 µM)
  MIC50: 0.5 µg/mL (≈ 1.09 µM)
  MIC80: 0.5 µg/mL (≈ 1.09 µM)
[7]
  MIC: 0.5 µg/mL (≈ 1.09 µM)
  MIC50: 0.5 µg/mL (≈ 1.09 µM)
  MIC80: 0.5 µg/mL (≈ 1.09 µM)
[8]
  MIC: 0.5 µg/mL (≈ 1.09 µM)
  MIC50: 0.5 µg/mL (≈ 1.09 µM)
  MIC80: 0.5 µg/mL (≈ 1.09 µM)

## Clc1ccc(-c2cc(-c3nnn[nH]3)sc2-c2ccc(Cl)cc2)cc1 [DNM0487, 5-(4,5-Bis(4-chlorophenyl)thiophen-2-yl)-1H-tetrazole]
AcpS enzyme; test compound 50 uM
  activity at 50 µM: 3.34%
AcpS enzyme; test compound 500 uM
  remaining activity at 500 µM: 0.08%
[1]
  MIC: 8 µM (≈ 2.99 µg/mL)
E. coli D22
  MIC: > 125 µM
Bacillus cereus NCTC6349
  MIC: 0.5 µg/mL (≈ 1.34 µM)
  MIC50: 0.5 µg/mL (≈ 1.34 µM)
  MIC80: 0.5 µg/mL (≈ 1.34 µM)
[2]
  MIC: 2 µg/mL (≈ 5.36 µM)
  MIC50: 2 µg/mL (≈ 5.36 µM)
  MIC80: 2 µg/mL (≈ 5.36 µM)
[3]
  MIC: 2 µg/mL (≈ 5.36 µM)
  MIC50: 1 µg/mL (≈ 2.68 µM)
  MIC80: 2 µg/mL (≈ 5.36 µM)
[4]
  MIC: 1 µg/mL (≈ 2.68 µM)
  MIC50: 1 µg/mL (≈ 2.68 µM)
  MIC80: 1 µg/mL (≈ 2.68 µM)
[5]
  MIC: 1 µg/mL (≈ 2.68 µM)
  MIC50: 1 µg/mL (≈ 2.68 µM)
  MIC80: 1 µg/mL (≈ 2.68 µM)
[6]
  MIC: 1 µg/mL (≈ 2.68 µM)
  MIC50: 1 µg/mL (≈ 2.68 µM)
  MIC80: 1 µg/mL (≈ 2.68 µM)
[7]
  MIC: 2 µg/mL (≈ 5.36 µM)
  MIC50: 1 µg/mL (≈ 2.68 µM)
  MIC80: 2 µg/mL (≈ 5.36 µM)
[8]
  MIC: 1 µg/mL (≈ 2.68 µM)
  MIC50: 1 µg/mL (≈ 2.68 µM)
  MIC80: 1 µg/mL (≈ 2.68 µM)

## Cc1cc(Cl)ccc1-c1cc(-c2nnn[nH]2)sc1-c1ccc(C)c2ccccc12 [DNM0576, 5-(4-(4-Chloro-2-methylphenyl)-5-(4-methylnaphthalen-1-yl)thiophen-2-yl)-1H-tetrazole]
AcpS enzyme; test compound 50 uM
  activity at 50 µM: 5.88%
AcpS enzyme; test compound 500 uM
  remaining activity at 500 µM: 0.15%
[1]
  MIC: 4 µM (≈ 1.67 µg/mL)
E. coli D22
  MIC: > 125 µM
Bacillus cereus NCTC6349
  MIC: 0.5 µg/mL (≈ 1.2 µM)
  MIC50: ≤ 0.25 µg/mL
  MIC80: ≤ 0.25 µg/mL
[2]
  MIC: 1 µg/mL (≈ 2.4 µM)
  MIC50: 1 µg/mL (≈ 2.4 µM)
  MIC80: 1 µg/mL (≈ 2.4 µM)
[3]
  MIC: 1 µg/mL (≈ 2.4 µM)
  MIC50: 1 µg/mL (≈ 2.4 µM)
  MIC80: 1 µg/mL (≈ 2.4 µM)
[4]
  MIC: 0.5 µg/mL (≈ 1.2 µM)
  MIC50: 0.25 µg/mL (≈ 0.6 µM)
  MIC80: 0.25 µg/mL (≈ 0.6 µM)
[5]
  MIC: 0.5 µg/mL (≈ 1.2 µM)
  MIC50: 0.5 µg/mL (≈ 1.2 µM)
  MIC80: 0.5 µg/mL (≈ 1.2 µM)
[6]
  MIC: 0.5 µg/mL (≈ 1.2 µM)
  MIC50: 0.5 µg/mL (≈ 1.2 µM)
  MIC80: 0.5 µg/mL (≈ 1.2 µM)
[7]
  MIC: ≤ 0.25 µg/mL
  MIC50: ≤ 0.25 µg/mL
  MIC80: ≤ 0.25 µg/mL
[8]
  MIC: 0.5 µg/mL (≈ 1.2 µM)
  MIC50: 0.5 µg/mL (≈ 1.2 µM)
  MIC80: 0.5 µg/mL (≈ 1.2 µM)
